Tests used:
[1] = tested on: MAYV virus, TRVL4576 strain; test: Antiviral activity against the Mayaro virus in HeLa cells (luciferase reporter); conditions: 24 h, read-out: IC50 MAYV
ZIKV BeH8 strain = test: Antiviral activity against the Zika virus in HeLa cells (viral RNA by qRT-PCR); conditions: for IC50: Zika virus, HeLa, 24 h, read-out: IC50 ZIKV
[2] = tested on: CHIKV virus, LR-OPY1 strain; test: Antiviral activity against the Chikungunya virus in HeLa cells (luciferase/GFP reporter); conditions: for IC50: Chikungunya virus, HeLa, 24 h, read-out: IC50 CKV
[3] = tested on: WNV virus, Kunjin strain (KUNV); test: Antiviral activity against the WNV virus Kunjin strain in HeLa cells (nanoluciferase reporter); format: cell-based; conditions: West Nile virus, KUNV-luciferase reporter virus, MOI=0.1, 24 h
[4] = tested on: SARS-COV2 virus, BetaCoV/France/IDF0371/2020; test: Antiviral activity against SARS-COV2 coronavirus in VeroE6 cells (viral RNA by qRT-PCR); format: cell-based; conditions: 1.25 μM, 24 h

| SMILES | IC50 [1] [µM] | concentration that prevents infection of the Hela cells by the strain ZIKV BeH-8 (ZIKV BeH8 strain; HeLa cells, MOI=0.1, 24 h) | IC50 (ZIKV BeH8 strain) [µM] | IC50 [2] [µM] | concentration that prevents infection of the Hela cells by the Chikungunya virus ([2]; HeLa cells, MOI=0.1, 24 h) | IC50 [3] [µM] | effect on infection of the cells by the SARS-COV2 virus [4] |
| --- | --- | --- | --- | --- | --- | --- | --- |
| Cc1ccc(C(=O)Nc2cccc(-c3c[nH]c4ncc(-c5ccccc5)cc34)c2)c(=O)n1-c1ccc(F)cc1 [Compound 4, 1-(4-fluorophenyl)-6-methyl-2-oxo-1,2-dihydro-pyridine-3-carboxylic acid [3-(5-phenyl-1H-pyrrolo[2,3-b]pyridin-3-yl)-phenyl]-amide] | 0.313 | greater than or equal to 100 nM | 0.29 | 0.243 | greater than or equal to 100 nM | 1.32 |  |
| O=C(Nc1ccc(F)cc1)C1(C(=O)Nc2cccc(-c3c[nH]c4ncc(-c5ccccc5)cc34)c2)CC1 [Compound 5, Cyclopropane-1,1-dicarboxylic acid (4-fluoro-phenyl)-amide [3-(5-phenyl-1H-pyrrolo[2,3-b]pyridin-3-yl)-phenyl]-amide] |  |  |  |  |  |  | reduces the infection |
| Cc1ccc(C(=O)Nc2ccc(F)c(-c3c[nH]c4ncc(-c5ccccc5)cc34)c2)c(=O)n1-c1ccc(F)cc1 [Compound 15, 1-(4-fluorophenyl)-6-methyl-2-oxo-1,2-dihydro-pyridine-3-carboxylic acid [4-fluoro-3-(5-phenyl-1H-pyrrolo[2,3-b]pyridin-3-yl)-phenyl]-amide] |  |  |  |  |  | 0.934 |  |
| Nc1nc(Nc2ccc3c(c2)CC[C@@H](N2CCCC2)CC3)nn1-c1cc2c(nn1)-c1ccccc1CCC2 [R428/Bemcentinib, reference compound] |  |  | 0.285 | 0.239 |  |  |  |

From patent US20240239795A1, “NOVEL AZAINDOLE DERIVATIVES AS ANTIVIRAL AGENTS” (Centre National de la Recherche Scientifique, priority 2021, published 2024)
